Reference: PubChem BioAssay (NCI)
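These data come from cells grown in 96-well plates and exposed to compound for 48 hours at five concentrations. GI50 = concentration required for 50% inhibition of growth. The concentration for full growth arrest is given as TGI.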

Legend:
Assay in all cases: inhibition of tumour cell growth, NCI panel, 48 h
A498 renal = tested on: A498 renal
786-0 renal = tested on: 786-0 renal
HOP-92 NSCLC = tested on: HOP-92 NSCLC
CCRF-CEM leukemia = tested on: CCRF-CEM leukemia
RXF 393 renal = tested on: RXF 393 renal
A549 NSCLC = tested on: A549 NSCLC
SF-295 CNS = tested on: SF-295 CNS
CAKI-1 renal = tested on: CAKI-1 renal
MCF7 breast = tested on: MCF7 breast
HS 578T breast = tested on: HS 578T breast

In the case of `Fc1ccc(C2SCc3nc4ccccc4n32)c(F)c1` (stereo not given), the TGI (A498 renal) was > 100 µM, the TGI (786-0 renal) was > 100 µM and the TGI (HOP-92 NSCLC) was 92.4 µM. For the same molecule, the TGI (CCRF-CEM leukemia) was > 100 µM, the TGI (RXF 393 renal) was > 100 µM and the TGI (A549 NSCLC) was > 100 µM. For the same molecule, the TGI (SF-295 CNS) was > 100 µM and the TGI (CAKI-1 renal) was > 100 µM.

With `Cc1c(/C=N/N=C/c2[nH]c(C(=O)OC(C)(C)C)c(C)c2C)[nH]c(C(=O)OC(C)(C)C)c1C` the TGI (A498 renal) was > 100 µM, the TGI (786-0 renal) was > 100 µM and the TGI (HOP-92 NSCLC) was > 100 µM. For the same molecule, the TGI (CCRF-CEM leukemia) was > 100 µM, the TGI (RXF 393 renal) was > 100 µM and the TGI (A549 NSCLC) was > 100 µM. For the same molecule, the TGI (SF-295 CNS) was > 100 µM and the TGI (CAKI-1 renal) was > 100 µM.

With `O=C(NC1CCCCC1)NS(=O)(=O)c1ccc2c(c1)CCC2` the TGI (786-0 renal) was > 100 µM, the TGI (HOP-92 NSCLC) was > 100 µM and the TGI (CCRF-CEM leukemia) was > 100 µM. For the same molecule, the TGI (RXF 393 renal) was > 100 µM, the TGI (A549 NSCLC) was > 100 µM and the TGI (SF-295 CNS) was > 100 µM.

For `COc1ccc(C=O)c([N+](=O)[O-])c1`, the TGI (A498 renal) was > 100 µM, the TGI (786-0 renal) was > 100 µM and the TGI (HOP-92 NSCLC) was > 100 µM. The TGI (CCRF-CEM leukemia) was 76.3 µM, the TGI (RXF 393 renal) was > 100 µM and the TGI (A549 NSCLC) was > 100 µM. For the same molecule, the TGI (SF-295 CNS) was 64.9 µM.

`COc1cc2c(cc1OCCCn1c(-c3ccccn3)nc3ccccc31)N=C[C@@H]1CCCN1C2=O` showed a GI50 (A498 renal) of 3.96 µM, a TGI (A498 renal) of 14.5 µM and a GI50 (786-0 renal) of 2.76 µM. It also gave a TGI (786-0 renal) of 10.9 µM, a GI50 (HOP-92 NSCLC) of 3.87 µM and a TGI (HOP-92 NSCLC) of 26.6 µM. For the same molecule, the GI50 (CCRF-CEM leukemia) was 15.7 µM, the TGI (CCRF-CEM leukemia) was > 25 µM and the GI50 (RXF 393 renal) was 0.571 µM. It also gave a TGI (RXF 393 renal) of 3.64 µM, a GI50 (MCF7 breast) of 0.632 µM and a TGI (MCF7 breast) of 3.47 µM. It also gave a GI50 (A549 NSCLC) of 1.87 µM, a TGI (A549 NSCLC) of 7.08 µM and a GI50 (SF-295 CNS) of 4.05 µM. It also gave a TGI (SF-295 CNS) of 49.7 µM, a GI50 (CAKI-1 renal) of 2.16 µM and a TGI (CAKI-1 renal) of 5.6 µM.

`Cc1cccc(C)c1NC(=O)/C(=N/NC(N)=S)C(C)C(=O)c1ccc(Cl)cc1` (stereo not given) was tested, and the TGI (A498 renal) was > 100 µM, the TGI (786-0 renal) was > 100 µM and the TGI (HOP-92 NSCLC) was > 100 µM. The TGI (CCRF-CEM leukemia) was > 100 µM, the TGI (A549 NSCLC) was > 100 µM and the TGI (SF-295 CNS) was > 100 µM. For the same molecule, the TGI (CAKI-1 renal) was > 100 µM.

With `O=C1c2c(c3c4ccccc4[nH]c3c3ccc4ccccc4c23)C(=O)N1CCN1CCNCC1` the GI50 (A498 renal) was 4.19 µM, the TGI (A498 renal) was 19.6 µM and the GI50 (786-0 renal) was 1.76 µM. It also gave a TGI (786-0 renal) of 3.21 µM, a GI50 (HOP-92 NSCLC) of 1.83 µM and a TGI (HOP-92 NSCLC) of 4.14 µM. For the same molecule, the GI50 (CCRF-CEM leukemia) was 1.33 µM, the TGI (CCRF-CEM leukemia) was 4.22 µM and the GI50 (RXF 393 renal) was 1.76 µM. The TGI (RXF 393 renal) was 3.39 µM, the GI50 (MCF7 breast) was 1 µM and the TGI (MCF7 breast) was 2.42 µM. The GI50 (A549 NSCLC) was 1.16 µM, the TGI (A549 NSCLC) was 2.64 µM and the GI50 (SF-295 CNS) was 1.85 µM. For the same molecule, the TGI (SF-295 CNS) was 3.42 µM, the GI50 (CAKI-1 renal) was 1.37 µM and the TGI (CAKI-1 renal) was 2.69 µM.

With `COC(=O)C1CC2CC(=NNC(N)=O)CC2C1` (stereo not given) the TGI (A498 renal) was > 100 µM, the TGI (786-0 renal) was > 100 µM and the TGI (HOP-92 NSCLC) was > 100 µM. The TGI (CCRF-CEM leukemia) was > 100 µM, the TGI (RXF 393 renal) was > 100 µM and the TGI (A549 NSCLC) was > 100 µM. The TGI (SF-295 CNS) was > 100 µM and the TGI (CAKI-1 renal) was > 100 µM.

In the case of `O=C(/C=C\c1cccc([N+](=O)[O-])c1)/C=C/c1cccc([N+](=O)[O-])c1`, the GI50 (A498 renal) was > 100 µM, the TGI (A498 renal) was > 100 µM and the GI50 (786-0 renal) was 5.05 µM. The TGI (786-0 renal) was 22.1 µM, the GI50 (HOP-92 NSCLC) was 9.92 µM and the TGI (HOP-92 NSCLC) was 43.9 µM. For the same molecule, the GI50 (RXF 393 renal) was 2.55 µM, the TGI (RXF 393 renal) was 6.57 µM and the GI50 (MCF7 breast) was 0.655 µM. For the same molecule, the TGI (MCF7 breast) was 6.68 µM, the GI50 (A549 NSCLC) was 3.21 µM and the TGI (A549 NSCLC) was 12.2 µM. It also gave a GI50 (SF-295 CNS) of 2.37 µM, a TGI (SF-295 CNS) of 7.77 µM and a GI50 (CAKI-1 renal) of 4.4 µM. For the same molecule, the TGI (CAKI-1 renal) was > 100 µM.

With `CC(=O)Nc1ccc(SC#N)c2c(NC(C)=O)cccc12` the TGI (A498 renal) was > 100 µM, the TGI (786-0 renal) was > 100 µM and the TGI (HOP-92 NSCLC) was > 94.8 µM. For the same molecule, the TGI (CCRF-CEM leukemia) was > 90.6 µM, the TGI (RXF 393 renal) was > 100 µM and the TGI (A549 NSCLC) was > 100 µM. For the same molecule, the TGI (SF-295 CNS) was > 100 µM and the TGI (CAKI-1 renal) was > 100 µM.

With `Cc1ccc2c(C3Cc4ccccc4N3C(=O)/C=C\C(=O)O)c(C)[nH]c2c1` (stereo not given) the TGI (A498 renal) was > 100 µM, the TGI (786-0 renal) was > 100 µM and the TGI (HOP-92 NSCLC) was 84.1 µM. The TGI (CCRF-CEM leukemia) was 62.5 µM, the TGI (RXF 393 renal) was 93.8 µM and the TGI (A549 NSCLC) was > 100 µM. The TGI (SF-295 CNS) was > 100 µM and the TGI (CAKI-1 renal) was > 100 µM.

With `COc1ccc(-c2cc(Cc3cccs3)c(=O)[nH]n2)cc1` the TGI (786-0 renal) was > 100 µM, the TGI (HOP-92 NSCLC) was > 100 µM and the TGI (RXF 393 renal) was > 100 µM. For the same molecule, the TGI (A549 NSCLC) was > 100 µM and the TGI (SF-295 CNS) was > 100 µM.

In the case of `COC(=O)C1(C)CCc2c(OC)ccc(OC)c2C1=O` (stereo not given), the TGI (786-0 renal) was > 100 µM, the TGI (CCRF-CEM leukemia) was > 100 µM and the TGI (RXF 393 renal) was > 100 µM. For the same molecule, the TGI (A549 NSCLC) was > 100 µM and the TGI (SF-295 CNS) was > 100 µM.

For `CCOC(=O)C1C(=S)NC(=O)C1C#N` (stereo not given), the TGI (786-0 renal) was > 100 µM, the TGI (HOP-92 NSCLC) was > 100 µM and the TGI (CCRF-CEM leukemia) was > 100 µM. The TGI (RXF 393 renal) was > 100 µM, the TGI (A549 NSCLC) was > 100 µM and the TGI (SF-295 CNS) was > 100 µM. The TGI (CAKI-1 renal) was > 100 µM.

With `CCC(=O)C12OC3OC(C)(C)OC3C1OC(C)(C)O2` (stereo not given) the TGI (A498 renal) was > 100 µM, the TGI (786-0 renal) was > 100 µM and the TGI (HOP-92 NSCLC) was > 100 µM. For the same molecule, the TGI (CCRF-CEM leukemia) was > 100 µM, the TGI (RXF 393 renal) was > 100 µM and the TGI (A549 NSCLC) was > 100 µM. For the same molecule, the TGI (SF-295 CNS) was > 100 µM and the TGI (CAKI-1 renal) was > 100 µM.

With `CCN(CC)CC1c2ccccc2C(CNc2ccccc2)N1C` (stereo not given) the TGI (786-0 renal) was > 100 µM, the TGI (HOP-92 NSCLC) was > 100 µM and the TGI (CCRF-CEM leukemia) was > 100 µM. For the same molecule, the TGI (RXF 393 renal) was > 100 µM, the TGI (A549 NSCLC) was > 100 µM and the TGI (SF-295 CNS) was > 100 µM. The TGI (CAKI-1 renal) was > 100 µM.

In the case of `Cc1ccc(-c2nnc(-c3nn(-c4ccccc4)c4nc5ccccc5nc34)o2)cc1`, the TGI (786-0 renal) was 21.6 µM, the TGI (HOP-92 NSCLC) was 20.9 µM and the TGI (CCRF-CEM leukemia) was 64.3 µM. It also gave a TGI (RXF 393 renal) of 20.5 µM, a TGI (A549 NSCLC) of 41.4 µM and a TGI (SF-295 CNS) of 36.8 µM. It also gave a TGI (CAKI-1 renal) of 26.9 µM.

In the case of `COc1cc2c(c(OC)c1OC)-c1ccc(SC)c(=O)cc1C(NC(=O)c1ccccc1)CC2` (stereo not given), the TGI (A498 renal) was 0.435 µM, the TGI (786-0 renal) was 38.3 µM and the TGI (HOP-92 NSCLC) was 3.79 µM. The TGI (CCRF-CEM leukemia) was > 68.1 µM, the TGI (RXF 393 renal) was 7.88 µM and the TGI (A549 NSCLC) was 65.9 µM. The TGI (SF-295 CNS) was < 0.0133 µM, the TGI (HS 578T breast) was 5.34 µM and the TGI (CAKI-1 renal) was 48.5 µM.
